Measured values taken from patent US20030167556A1, “Methods and devices for transdermal delivery of anti-aging compounds for treatment and prevention of facial or neck skin aging” (Consumers Choice Systems, Inc., priority 2002, published 2003).

What was measured:
[1] = intraduodenal, rats, with 1% (w/v) saline dispersion of polycarbophil; cited from earlier work
human skin = experiment: Ultra weak photon emission (UPE) assay of skin after UVA irradiation; type: in vivo; conditions: orbital patch with 0.3% CoQ10 once or twice daily for 7 days, 50 mJ/cm^2 UVA, vs delivery vehicle alone
Source text: Oxidative events in human skin in vivo following delivery of CoQ10 via a facial patch or mask of the invention are detected, for example, by means of ultra weak photon emission assay [Sauermann et al., Oxidants & Antioxidants, Methods in Enzymology, L. Packer, ed., Academic Press, 300: 419-428 (1999), incorporated herein by reference]. In the basal state, cells emit low levels of photons. When UVA irradiation is applied there is an excited state with a large increase in the level of photons that decay with time. The level of photons emitted is an indication of the antioxidant status of the skin. If there is an increase in antioxidants, the excitation is less and the level of photons emitted will be reduced. The ultra weak photon emission (UPE) is measured after UVA irradiation in two age groups: (1) aged 18-25 years, (2) aged 60-72 years.

peri-orbital skin = experiment: Quantitative microtopography of skin casts, depth of deep wrinkles (photoaging); type: in vivo, human
Method: A significant adverse symptom of photoaging is the presence of deep wrinkles. […] In one exemplary protocol, an orbital patch containing CoQ10 in a delivery vehicle or carrier as described above is applied to one eye of a subject, and a control orbital patch containing a delivery vehicle alone is applied around the other eye. Casts are then prepared for quantitative microtopography [see, e.g., Hoppe, et al., J. Soc. Cosmetic Chemists 36: 105-123 (1985), incorporated herein by reference]. Photographs of the skin before treatment show deep wrinkles, which are characteristic of photoaging, whereas fine wrinkles are associated with chronological aging. Using microtopography to measure a reduction in the depth of wrinkles in aged skin, two important parameters can be calculated from the microtopography. They are: Rt which is the mean peak to valley measurement of a defined unit distance, and Rq which is the integrated area of the peaks and troughs. These measurements indicate the variation of the microtopography from a flat surface. […] In certain examples, treatment with an orbital patch containing 0.3% CoQ10 will results in at least a 25% reduction in the mean peak to valley depth of the skin and at least a 25% reduction in the Rq value, compared to controls.

facial skin = experiment: Corneocyte surface area (senile xerosis) after facial patch or mask treatment; type: in vivo; conditions: patch or mask containing 0.3% CoQ10, once or twice daily for 7 days, vs delivery vehicle or carrier alone
Source text: Although the stratum corneum, the outermost layer of the epidermis, is continuously sloughed off and replaced in healthy individuals, it will display symptoms of aging in the underlying living cells in older subjects. The area of corneocytes, which make up the stratum corneum, is proportional to the time taken for the keratinocyte to differentiate and move from the basal layer to the stratum corneum. In aged skin, the time taken to move through the epidermis increases, and corneocytes become larger. The surface can develop fine lines and become dry and scaly (senile xerosis). As aging progresses, the surface area of corneocytes increases, and thus this value can be measured to determine the effectiveness of an anti-aging treatment (i.e., to decrease the transit time and corneocyte surface area).

[2] = orbital patch containing 0.3% CoQ10, compared to controls

Molecule | increase in bioavailability compared to aqueous solution without polymer [1] | levels of UPE compared to control level (human skin) | reduction in the Rq value (peri-orbital skin; [2]) [%] | reduction in the mean peak to valley depth of the skin (Rt) (peri-orbital skin; [2]) [%] | depth of deep wrinkles (peri-orbital skin; patch containing 0.3% CoQ10 once daily, at least 2 hours each day, one week to six months, vs vehicle control) | corneocyte area over time (facial skin)
9-desglycinamide, 8-arginine vasopressin [DGAVP] | 3-5 fold |  |  |  |  | 
COC1=C(OC)C(=O)C(C/C=C(\C)CC/C=C(\C)CC/C=C(\C)CC/C=C(\C)CC/C=C(\C)CC/C=C(\C)CC/C=C(\C)CC/C=C(\C)CC/C=C(\C)CCC=C(C)C)=C(C)C1=O [CoQ10, CoEnzyme Q10] |  | significantly lower levels | ≥ 25 | ≥ 25 | significantly reduced | significant decrease
